Measured values: patent US4839371A, “3-aralkyl-2-mercaptoyridines as dopamine-β-hydroxylase inhibitors” (SmithKline Beckman Corporation, priority 1987, dated 1989)
Where two headings read alike, the source gives them in different places.

Assays:
DBH [1] = target: T1, DBH (Bos taurus, UniProt P15101); assay: in vitro DBH inhibition (conversion of tyramine to octopamine, spectrophotometric at 330 nm)
T1 sequence (P15101 1-610): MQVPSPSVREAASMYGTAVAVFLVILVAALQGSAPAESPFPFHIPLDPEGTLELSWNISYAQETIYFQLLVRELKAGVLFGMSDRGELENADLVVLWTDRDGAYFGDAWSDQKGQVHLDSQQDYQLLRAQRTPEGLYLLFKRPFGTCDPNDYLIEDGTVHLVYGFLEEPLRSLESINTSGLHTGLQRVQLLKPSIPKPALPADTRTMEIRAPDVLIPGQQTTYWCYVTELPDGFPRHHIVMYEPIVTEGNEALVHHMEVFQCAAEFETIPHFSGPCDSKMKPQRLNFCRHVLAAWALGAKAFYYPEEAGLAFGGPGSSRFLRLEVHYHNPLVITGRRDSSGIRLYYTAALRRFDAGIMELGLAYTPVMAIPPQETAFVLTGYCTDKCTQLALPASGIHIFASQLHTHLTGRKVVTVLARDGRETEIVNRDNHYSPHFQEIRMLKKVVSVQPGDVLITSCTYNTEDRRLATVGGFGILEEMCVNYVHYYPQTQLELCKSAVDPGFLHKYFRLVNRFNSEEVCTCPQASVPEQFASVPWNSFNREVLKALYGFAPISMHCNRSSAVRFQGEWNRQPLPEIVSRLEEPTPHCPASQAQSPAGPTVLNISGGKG

[2] = test system: spontaneously hypertensive rats; assay: mean arterial blood pressure in spontaneously hypertensive rats; type: in vivo; settings: 50 mg/kg intraperitoneally
Source text: Maximal blood pressure reduction was approximately 50 to 55 mm Hg.

DBH [3] = settings: cited from earlier work
[4] = patients, Friedman et al., Psychosomatic Med. 40, 107 (1978), significance uncertain

IC50 (DBH [1]) | Structure (SMILES) | lowered DBH levels in treated patients (DBH [3]; [4]) | other results
134 µM | Fc1cc(F)cc(Cc2cccnc2S)c1 | – | blood pressure reduction compared to vehicle-treated controls ([2]; monitored for 260 minutes): significant blood pressure reductions; time after treatment to significant blood pressure reductions ([2]; within approximately): ≤ 30 min
– | CC(C)NCC(O)COc1cccc2ccccc12 (stereo not shown) [propranolol] | – | lowered DBH levels in treated patients (DBH [3]; human, in vivo): not
500 µM | Fc1cccc(Cc2cccnc2S)c1 [3-(3-Fluorobenzyl)-2-mercaptopyridine] | – | –
– | C[C@](N)(Cc1ccc(O)c(O)c1)C(=O)O [alpha-methyl-DOPA] | lowered DBH levels | –
– | COC(=O)[C@H]1[C@H]2C[C@@H]3c4[nH]c5cc(OC)ccc5c4CCN3C[C@H]2C[C@@H](OC(=O)c2cc(OC)c(OC)c(OC)c2)[C@@H]1OC [reserpine] | lowered DBH levels | –
